Data on 16 molecules can be found in US12527779B2, “Prostaglandin E2 (PGE2) EP4 receptor antagonists” (Domain Therapeutics, priority 2019, dated 2026).

Structures can show the parent of a compound that is named as a salt. Where only a bound is given, the exact number is not on record here.

Test [1] addresses T1, human EP4 (hEP4) receptor (Homo sapiens, UniProt P35408).
T1 construct: expressed in transfected cells; host or cells: HEK-293 T cells, transient co-transfection with polyethylenimine
The test can be described thus: In vitro human EP4 functional antagonist activity using BRET biosensors (cAMP EPAC biosensor, TCS2510 stimulation). In kind it is cell-based. As to conditions: antagonist activity vs EC60 TCS2510, hEP4 in HEK-293 T cells. Summed up: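 HEK-293T cells transiently co-transfected with hEP4 and EPAC cAMP BRET biosensor (luciferase/GFP), assayed 48 h later in HEPES-buffered saline after 1 h at 22 °C. After 5 min with compound, cells stimulated with EC60 TCS2510 and BRET read for 10 min; IC50 from 10-point, 4.5-log variable-slope fits, duplicate, two experiments.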

The next test has as its system CT26 tumor cells. The test can be described thus: In vivo anti-tumoral activity in a CT26 tumor model. Details: species or system BALB/c mice. As to conditions: Example 25 150 mg/kg po BID combined with anti-PD-1 antibody 200 μg/mouse iv Q3D; 12 mice per group. The protocol: CT26 tumor cells were maintained in vitro as a monolayer culture in RPM11640 medium supplemented with 10% fetal bovine serum at 37° C. in an atmosphere of 5% CO2 in air. The cells were routinely subcultured twice weekly by trypsin-EDTA treatment. The cells in an exponential growth phase were harvested and counted for tumor inoculation.
Female BALB/c mice were inoculated subcutaneously in the right rear flank region with CT26 tumor cells (5×10^5) in 0.1 ml of PBS for tumor development on day 0. Tumor volumes were measured thrice per week in two dimensions using a caliper, and the volume was expressed in mm^3 using the formula: “V=(L×W×W)/2”, where V is tumor volume, L is tumor length (the longest tumor dimension) and W is tumor width (the longest tumor dimension perpendicular to L). […]
Animals were checked daily for morbidity and mortality. During routine monitoring, the animals were checked for any effects on tumor growth and treatments on behavior such as mobility, food and water consumption, body weight gain/loss (body weights were measured thrice per week), eye/hair matting and any other abnormalities. […] The body weights and tumor volumes were monitored by using StudyDirector™ software (version 3.1.399.19).

Another test has as its system Pan02 tumor cells. The test can be described thus: In vivo anti-tumoral activity of Example 25 in a Pan02 tumor model. More on the design: species or system C57BL/6 mice. The protocol: Pan02 tumor cells were maintained in vitro as a monolayer culture in RPM11640 medium supplemented with 10% fetal bovine serum at 37° C. in an atmosphere of 5% CO2 in air. The cells were routinely subcultured twice weekly by trypsin-EDTA treatment. The cells in an exponential growth phase were harvested and counted for tumor inoculation.
Female C57BL/6 mice were inoculated subcutaneously in the right rear flank region with Pan02 tumor cells (3×10^6) in 0.1 ml of PBS for tumor development on day 0. Tumor volumes were measured thrice per week in two dimensions using a caliper, and the volume was expressed in mm^3 using the formula: “V=(L×W×W)/2”, where V is tumor volume, L is tumor length (the longest tumor dimension) and W is tumor width (the longest tumor dimension perpendicular to L). When the mean tumor size reached approximately 100 mm^3, mice were randomly allocated into groups (10 mice per group) and treated with either a control antibody (rIgG2a(2A3), 200 μg/mouse, iv, Q3D) or an anti-PD-1 antibody (RPM1-14, 200 μg/mouse, iv, Q3D), with or without the compound of Example 25 (150 mg/kg, po, 0.5% MC, BID, BID time interval: 8 h) for at least 3 weeks.
Animals were checked daily for morbidity and mortality. During routine monitoring, the animals were checked for any effects on tumor growth and treatments on behavior such as mobility, food and water consumption, body weight gain/loss (body weights were measured thrice per week), eye/hair matting and any other abnormalities. Dosing as well as tumor and body weight measurements were conducted in a Laminar Flow Cabinet. The body weights and tumor volumes were monitored by using StudyDirector™ software (version 3.1.399.19).

As a reminder, the IC50 is the concentration at which inhibition is half-maximal. The low end stands for greater potency, the high end for weaker potency.

T1 sequence (P35408 whole entry): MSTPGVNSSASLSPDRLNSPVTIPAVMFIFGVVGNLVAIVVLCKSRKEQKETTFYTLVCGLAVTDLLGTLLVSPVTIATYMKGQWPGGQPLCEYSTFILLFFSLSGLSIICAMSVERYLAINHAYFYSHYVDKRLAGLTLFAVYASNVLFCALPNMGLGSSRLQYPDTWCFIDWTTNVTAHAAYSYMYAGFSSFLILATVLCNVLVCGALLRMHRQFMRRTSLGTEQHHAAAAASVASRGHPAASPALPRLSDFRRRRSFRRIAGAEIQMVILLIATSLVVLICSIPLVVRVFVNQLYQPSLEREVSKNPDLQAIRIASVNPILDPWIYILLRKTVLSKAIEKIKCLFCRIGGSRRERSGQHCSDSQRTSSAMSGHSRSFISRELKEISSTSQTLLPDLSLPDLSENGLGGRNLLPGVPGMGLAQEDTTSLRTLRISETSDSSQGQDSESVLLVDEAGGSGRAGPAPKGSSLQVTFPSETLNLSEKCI

`CN(CCOc1ccccc1)C1(C(=O)NC2(c3ccc(C(=O)O)cc3)CC2)CCOCC1.Cl` [Example 25, 4-[1-[[4-[Methyl(2-phenoxyethyl)amino]tetrahydropyran-4-carbonyl]amino]cyclopropyl]benzoic acid, hydrochloride] displayed a concentration for half-maximal inhibition (IC50) in test [1] below 100 nM. Also, the “cases of complete tumor regression” value with CT26 tumor cells stood at 5 cases. Further, in the test on CT26 tumor cells, the “complete tumor regression, % of the test animals” value was found to be 42%. In addition, the “Tumor Growth Inhibition TGI (%)” value is recorded as 0.1% in the test with Pan02 tumor cells (Example 25 150 mg/kg po BID + anti-PD1 antibody 0.2 mg/animal Q3D, day 0); 10.9% in the test with Pan02 tumor cells (Example 25 150 mg/kg po BID + anti-PD1 antibody 0.2 mg/animal Q3D, day 3); 16.9% in the test with Pan02 tumor cells (Example 25 150 mg/kg po BID + anti-PD1 antibody 0.2 mg/animal Q3D, day 7); 26.1% in the test on Pan02 tumor cells (Example 25 150 mg/kg po BID + anti-PD1 antibody 0.2 mg/animal Q3D, day 10); 51.1% in the test with Pan02 tumor cells (Example 25 150 mg/kg po BID + anti-PD1 antibody 0.2 mg/animal Q3D, day 14); 62.8% with Pan02 tumor cells (Example 25 150 mg/kg po BID + anti-PD1 antibody 0.2 mg/animal Q3D, day 17). In addition, the “Tumor Growth Inhibition TGI (%)” value worked out at 71.0% in the test with Pan02 tumor cells (Example 25 150 mg/kg po BID + anti-PD1 antibody 0.2 mg/animal Q3D, day 21, hydrochloride, 150 mg/kg); 0.0% in the test with Pan02 tumor cells (Example 25 150 mg/kg po BID + rIgG2a, day 0); 15.6% in the test on Pan02 tumor cells (Example 25 150 mg/kg po BID + rIgG2a, day 3); 22.5% in the test with Pan02 tumor cells (Example 25 150 mg/kg po BID + rIgG2a, day 7); 25.1% with Pan02 tumor cells (Example 25 150 mg/kg po BID + rIgG2a, day 10); 51.5% in the test on Pan02 tumor cells (Example 25 150 mg/kg po BID + rIgG2a, day 14). The “Tumor Growth Inhibition TGI (%)” value worked out at 61.8% with Pan02 tumor cells (Example 25 150 mg/kg po BID + rIgG2a, day 17) and 68.5% in the test on Pan02 tumor cells (Example 25 150 mg/kg po BID + rIgG2a, day 21, hydrochloride, 150 mg/kg).
For `C[C@H](NC(=O)C(C)(C)N1CC[C@@H](Oc2cccc(Cl)c2)C1)c1ccc(C(N)=O)cc1` [Example 174, hydrochloride], the IC50 in test [1] was below 100 nM.
Consider `CN(CCOc1cccc(Cl)c1)C1(C(=O)NC2(c3ccc(C(=O)O)cc3)CC2)CCOCC1` [Example 29, 4-[1-[[4-[2-(3-Chlorophenoxy)ethyl-methyl-amino]tetrahydropyran-4-carbonyl]amino]cyclopropyl]benzoic acid, hydrochloride], for which the 50% inhibitory concentration (IC50) in test [1] was below 100 nM.
Molecule `C[C@H](NC(=O)C1(N2CC[C@@H](Oc3cccc(C(F)(F)F)c3)C2)CCOCC1)c1ccc(C(=O)N(C)C)cc1` [Example 170, 4-[(1S)-1-[[4-[(3R)-3-[3-(Trifluoromethyl)phenoxy]pyrrolidin-1-yl]tetrahydropyran-4-carbonyl]dimethylamino]ethyl]benzamide, hydrochloride] yielded a 50% inhibitory concentration (IC50) in test [1] below 100 nM.
On to `C[C@H](NC(=O)C1(NCCOc2ccc(Cl)cc2)CCOCC1)c1ccc(C(=O)O)cc1` [Example 11, 4-[(1S)-1-[[4-[2-(4-Chlorophenoxy)ethylamino]tetrahydropyran-4-carbonyl]amino]ethyl]benzoic acid, hydrochloride], for which the concentration for half-maximal inhibition (IC50) in test [1] was below 1000 nM.
Still for that read-out and setting: the value for `C[C@H](NC(=O)C1(c2ccc(OCC3CCCCC3)cc2)CCOCC1)c1ccc(C(=O)O)cc1` [Example 89, 4-[(1S)-1-[[4-[4-(Cyclohexylmethoxy)phenyl]tetrahydropyran-4-carbonyl]amino]ethyl]benzoic acid] was below 1000 nM.
Same read-out and setting: next, `C[C@H](NC(=O)C1(N2CCC[C@H](Oc3cccc(Cl)c3)C2)CCOCC1)c1ccc(C(=O)O)cc1` [Example 134, 4-[(1S)-1-[[4-[(3S)-3-(3-Chlorophenoxy)-1-piperidyl]tetrahydropyran-4-carbonyl]amino]ethyl]benzoic acid, hydrochloride]: below 1000 nM; `COc1cccc(OCCN(C)C2(C(=O)N[C@@H](C)c3ccc(C(=O)O)cc3)CCCCC2)c1` [Example 60, 4-[(1S)-1-[[1-[2-(3-Methoxyphenoxy)ethyl-methyl-amino]cyclohexanecarbonyl]amino]ethyl]benzoic acid, hydrochloride]: below 100 nM; `C[C@H](NC(=O)C1(NCCOc2ccccc2)CCC(F)(F)CC1)c1ccc(C(=O)O)cc1` [Example 65, 4-[(1S)-1-[[4,4-Difluoro-1-(2-phenoxyethylamino)cyclohexanecarbonyl]amino]ethyl]benzoic acid, hydrochloride]: below 1000 nM.
In test [1], `C[C@H](NC(=O)C1(NCCOc2cccc(Cl)c2)CCOCC1)c1ccc(C(=O)O)cc1` [Example 8, 4-[(1S)-1-[[4-[2-(3-Chlorophenoxy)ethylamino]tetrahydropyran-4-carbonyl]amino]ethyl]benzoic acid, hydrochloride] returned an IC50 below 100 nM.
In turn, `C[C@H](NC(=O)C1(c2cccc(OCC3CCOCC3)c2)CCOCC1)c1ccc(C(=O)O)cc1` [Example 98, 4-[(1S)-1-[[4-[3-(Tetrahydropyran-4-ylmethoxy)phenyl]tetrahydropyran-4-carbonyl]amino]ethyl]benzoic acid] yielded an IC50 in test [1] below 1000 nM.
Same read-out and setting: next, `C[C@H](NC(=O)C1(N2CC[C@@H](Oc3cccc(C(F)(F)F)c3)C2)CCOCC1)c1ccc(F)cc1` [Example 187, N—((S)-1-(4-Fluorophenyl)ethyl)-4-((R)-3-(3-(trifluoromethyl)phenoxy)pyrrolidin-1-yl)tetrahydro-2H-pyran-4-carboxamide, hydrochloride]: below 1000 nM; `C[C@H](NC(=O)C1(N2CC[C@@H](Oc3cccc(C(F)(F)F)c3)C2)CCOCC1)c1ccc(C(N)=O)cc1` [Example 168, 4-[(1S)-1-[[4-[(3R)-3-[3-(Trifluoromethyl)phenoxy]pyrrolidin-1-yl]tetrahydropyran-4-carbonyl]amino]ethyl]benzamide, hydrochloride]: below 100 nM; `COc1ccc(OCCN(C)C2(C(=O)NC3(c4ccc(C(=O)O)cc4)CC3)CCOCC2)cc1` [Example 40, 4-[1-[[4-[2-(4-Methoxyphenoxy)ethyl-methyl-amino]tetrahydropyran-4-carbonyl]amino]cyclopropyl]benzoic acid, hydrochloride]: below 1000 nM.
In test [1], `C[C@H](NC(=O)C1(N2CCC[C@@H](Oc3cccc(Cl)c3)C2)CCOCC1)c1ccc(C(=O)O)cc1` [Example 136, 4-[(1S)-1-[[4-[(3R)-3-(3-Chlorophenoxy)-1-piperidyl]tetrahydropyran-4-carbonyl]amino]ethyl]benzoic acid, hydrochloride] had an IC50 below 100 nM.
Still for that read-out and setting: next, `C[C@H](NC(=O)C1(NCCOc2ccccc2)CCSCC1)c1ccc(C(=O)O)cc1` [Example 66, 4-[(1S)-1-[[4-(2-Phenoxyethylamino)tetrahydrothiopyran-4-carbonyl]amino]ethyl]benzoic acid]: below 100 nM.
